Converted amounts (≈) assume the structure as drawn. “Also recorded” adds a separate entry of the source.
Legend:
MRSA ATCC 49476 = test: Droplets with labeled fibrinogen, BSA +/- cefoxitin: growth and labeling; format: cell-based, Staphylococcus aureus
Method: (§1) Fibrinogen (Sigma Aldrich) that binds to Staphylococcus aureus (S. aureus cells express surface proteins that promote attachment to host proteins such as fibronectin) was labeled using Kit Lynx LNK174PETR (Abd Serotec). […] After incubation at 37° C. for 3 hours, the samples were read using the ZOE™ Fluorescent Cell Imager (Bio-Rad Laboratories). The tables below show growth (visible) and labeling (fluorescence) obtained for the tested strains of MSSA and MRSA.

MRSA ATCC BAA 2312 = test: as above; format: cell-based, Staphylococcus aureus
Method: as §1

MSSA ATCC 29213 = test: as above; format: cell-based, Staphylococcus aureus
Method: as §1

MSSA ATCC 6538 = test: as above; format: cell-based, Staphylococcus aureus
Method: as §1

[1] = system: Escherichia coli (ATCC®25922™); test: Antimicrobial susceptibility testing in water-in-oil droplets, microscope reading; format: cell-based; settings: for MIC: Escherichia coli, ATCC25922, read-out: Observed MIC; for MIC / Observed MIC: droplets at 37° C., read after 4 and/or 6 h
Method: (at 30° C. for the C. albicans).

E. coli ATCC®25922 = settings: cited from earlier work
[2] = system: Penicillium hirsutum ATCC 16025; test: Inhibition of mold growth outside the droplet aqueous phase, antifungal in oil phase; format: cell-based; settings: 0.5 mg/L in the oil phase, 48 hours
[3] = conjugate 1/200, BSA 0 + FOX 0, 3 h at 37° C.
[4] = conjugate 1/200, BSA 2.5% + FOX 0, 3 h at 37° C.
[5] = conjugate 1/200, BSA 2.5% + FOX 2 mg/L, 3 h at 37° C.
[6] = conjugate 1/200, BSA 0 + FOX 2 mg/L, 3 h at 37° C.

Fibrinogen
Labeling (fluorescence) (MRSA ATCC 49476; [3]): Fluo +++
Labeling (fluorescence) (MRSA ATCC 49476; [4]): Fluo +++
Labeling (fluorescence) (MRSA ATCC 49476; [5]): Fluo +++
Labeling (fluorescence) (MRSA ATCC BAA 2312; [3]): BN (+)
Labeling (fluorescence) (MRSA ATCC BAA 2312; [6]): BN (+)
Labeling (fluorescence) (MRSA ATCC BAA 2312; [4]): Fluo +++
Labeling (fluorescence) (MRSA ATCC BAA 2312; [5]): Fluo +++
Labeling (fluorescence) (MSSA ATCC 29213; [3]): Fluo ++
Labeling (fluorescence) (MSSA ATCC 29213; [6]): BN (+)
Labeling (fluorescence) (MSSA ATCC 29213; [4]): Fluo +++
Labeling (fluorescence) (MSSA ATCC 29213; [5]): BN (+)
Labeling (fluorescence) (MSSA ATCC 6538; [3]): Fluo +++
Labeling (fluorescence) (MSSA ATCC 6538; [6]): BN (+)
Labeling (fluorescence) (MSSA ATCC 6538; [4]): Fluo +++
Labeling (fluorescence) (MSSA ATCC 6538; [5]): BN (+)

O=C(N[C@H](CO)[C@H](O)c1ccc([N+](=O)[O-])cc1)C(Cl)Cl [Chloramphenicol]
Growth in % of droplets ([1]; 0.5 mg/L, reading time 4 h): 30-50% of droplets
Growth in % of droplets ([1]; 1 mg/L, reading time 4 h): 20-30% of droplets
Growth in % of droplets ([1]; 1 mg/L, reading time 6 h): 30-50% of droplets
Growth in droplets (observation in words) ([1]; 2 mg/L, reading time 4 h): No growth
Growth in droplets (observation in words) ([1]; 2 mg/L, reading time 6 h): Limited growth in few
Growth in droplets (observation in words) ([1]; 4 mg/L, reading time 4 h): No growth
Growth in droplets (observation in words) ([1]; 4 mg/L, reading time 6 h): No growth
Growth in droplets (observation in words) ([1]; 8 mg/L, reading time 4 h): No growth
MIC [1]: 2 to 4 µg/mL (≈ 6.19 to 12.4 µM)
Expected MIC (CLSI) (E. coli ATCC®25922): 2 to 8 µg/mL

CN(C)[C@@H]1C(O)=C(C(N)=O)C(=O)[C@@]2(O)C(O)=C3C(=O)c4c(O)cccc4[C@@](C)(O)[C@H]3C[C@@H]12 [Tetracycline]
Growth in % of droplets ([1]; 0.25 mg/L, reading time 6 h): Growth in 20-30% of
MIC [1]: 0.5 µg/mL (≈ 1.13 µM)

Colistin
Growth in % of droplets ([1]; 0.125 mg/L, reading time 4 h): Growth in 10-20% of
Growth in droplets (observation in words) ([1]; 0.25 mg/L, reading time 4 h): Limited growth in few
Growth in % of droplets ([1]; 0.25 mg/L, reading time 6 h): Growth in 20-30% of
Growth in droplets (observation in words) ([1]; 0.5 mg/L, reading time 4 h): Growth in 1 droplet
Growth in droplets (observation in words) ([1]; 1 mg/L, reading time 6 h): No growth
Observed MIC [1]: 1 µg/mL
Expected MIC (CLSI) (E. coli ATCC®25922): 0.5 to 2 µg/mL

C=CCOC(Cn1ccnc1)c1ccc(Cl)cc1Cl (racemic) [Imazalil, (RS)-1-[2-(allyloxy)-2-(2,4-dichlorophenyl)ethyl]-1H-imidazole]
Mold growth outside the aqueous phase [2]: the hyphae spreading was inhibited and mold growth was confined within the droplet; also recorded: inhibition of mold growth outside the aqueous phase

Gentamycin
Growth in % of droplets ([1]; 0.125 mg/L, reading time 4 h): ~50% of the droplets
Growth in % of droplets ([1]; 0.25 mg/L, reading time 4 h): 30-50% of droplets
Growth in % of droplets ([1]; 0.5 mg/L, reading time 4 h): ~30% of droplets
Growth in % of droplets ([1]; 0.5 mg/L, reading time 6 h): 30-50% of droplets
Growth in droplets (observation in words) ([1]; 2 mg/L, reading time 4 h): No growth
Growth in droplets (observation in words) ([1]; 2 mg/L, reading time 6 h): No growth
Observed MIC [1]: 2 µg/mL
Expected MIC (CLSI) (E. coli ATCC®25922): 0.25 to 1 µg/mL
